Laboratory results reported in patent publication US20250145576A1, “CATHEPSIN K INHIBITOR, AND PREPARATION METHOD THEREFOR AND USE THEREOF” (SHANDONG NEW TIME PHARMACEUTICAL CO., LTD., priority 2022, published 2025).

Key:
ICR mice = assay: In-vivo toxicity study, single and multiple i.p. administration; conditions: for body weight vs vehicle group: all P>0.05
Experimental: Male ICR mice of 6-8 weeks were used as experimental subjects and randomly divided according to body weight after adaptive feeding for one week. Then compounds of different concentrations were prepared and used for single-administration and multiple-administration experiments by intraperitoneal injection (i.p), and a vehicle of the same component was used as a reference.
During this period, the body weight of the mice was measured daily. […] In the multiple-administration experiment, the administration doses of 50 mg/kg and 25 mg/kg were selected for administration at the frequency of once a day.

Cathepsin S = assay: Screening of Cathepsin S, fluorescence; type: biochemical; conditions: >> inhibition rate did not exceed 20% at test concentration; > greater than 35%; ≈ about 50%; < less than 50%
Experimental: (§1) 10 μL of a buffer, a Cat S inhibitor and test compounds (1 μM and 10 μM) were added to 96-well plates to serve as an EC well, an IC well and an S well, respectively; 50 μL of a Cat B enzyme solution was added into all the wells respectively and the mixture was incubated for 10-15 min at room temperature to establish an enzyme inhibitor complex; 40 μL of a Cat S substrate solution was added into all the wells and the mixture was incubated for 30-60 min at room temperature; and the final volume of the reaction was 100 μL.
(§2) The screening method was the same as above, the concentrations of the test compounds were set between 0.1 nM and 10 μM, 4-5 concentrations were selected for detection, IC50 curves were drawn, and IC50 values were calculated.

Cathepsin B = Cathepsin B (Homo sapiens (Human), UniProt P07858); assay: Screening of Cathepsin B, fluorescence; type: biochemical; conditions: >> inhibition rate did not exceed 20% at test concentration; > greater than 35%; ≈ about 50%; < less than 50%
Experimental: as §1, with “Cat B” for “Cat S”
as §2

Cathepsin K = Cathepsin K (Homo sapiens (Human), UniProt P43235); assay: Cat K inhibitor screening kit, AFC substrate fluorescence; type: biochemical
Sequence of Cathepsin K (P43235 115-329): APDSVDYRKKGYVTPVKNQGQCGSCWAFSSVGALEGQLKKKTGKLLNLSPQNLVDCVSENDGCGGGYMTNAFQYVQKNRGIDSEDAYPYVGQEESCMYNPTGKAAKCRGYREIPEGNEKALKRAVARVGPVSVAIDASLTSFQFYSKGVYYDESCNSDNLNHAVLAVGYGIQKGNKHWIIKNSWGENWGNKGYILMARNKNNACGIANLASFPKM
Experimental: Reagent information: Cat K inhibitor screening kit: batch number, 6L23K01500; supplier, BiVision. Drug preparation: compounds were dissolved in DMSO and prepared into 10 mM stock solutions. When in use, the stock solutions were prepared into the required concentrations by using a buffer.
Cathepsin K (CTSK, EC 3.4.22.38) is a lysosomal cysteine protease, participates in osteoclastic bone remodeling and resorption, and can further degrade collagen, gelatin and elastin. The cathepsin K inhibitor screening kit from Biovision uses the ability of the active cathepsin K to cleave a synthetic AFC-based peptide substrate to release AFC and the AFC can be easily quantified by using a fluorometer or fluorescent microplate reader. In the presence of a specific cathepsin K specific inhibitor, the cleavage of the substrate is reduced/eliminated, resulting in a reduction or complete loss of AFC fluorescence. The simple and high-throughput adaptive assay kit can be used to screen/study/characterize a potential inhibitor of the cathepsin K.
as §1, with “20 μL” for “10 μL”, “Cat K” for “Cat S”, “Cat K” for “Cat B”, “complex; 30” for “complex; 40”
The screening method was the same as 1.1, the concentrations of the test compounds were set between 0.1 nM and 10 μM, 4-5 concentrations were selected for detection, IC50 curves were drawn, and IC50 values were calculated.

C4-2B cells = assay: Migration, invasion and adhesion of C4-2B cells; type: cell-based; conditions: preliminary
[1] = Intrinsic clearance rate and half-life in rat liver microsomes; type: in vitro ADME; conditions: for half-life: rat
Experimental: 1 mL of a dichloromethane solution was respectively added into centrifuge tubes filled with test substance powders K2 (molecular formula C23H27N3O4, 4.6 mg), K3 (molecular formula C23H26FN3O4, 5.0 mg) and K4 (molecular formula C23H25F2N3O4, 5.6 mg) for dissolving, and subjected to ultrasonic treatment for 30 min to obtain a K2 stock solution with the mass concentration of 4.6 mg/mL, a K3 stock solution with the mass concentration of 5.0 mg/mL and a K4 stock solution with the mass concentration of 5.6 mg/mL. The stock solutions were sealedly stored in a refrigerator at −20° C. for later use. Before use, the stock solutions were gradually diluted with methanol to corresponding mass concentration to respectively prepare 0.02, 0.05, 0.22, 0.49, 0.96, 2.37 and 4.90 ng/mL of K2 series standard sample working solutions, 0.02, 0.05, 0.10, 0.19, 1.00, 2.01 and 4.93 ng/mL K3 series standard sample working solutions, and 0.10, 0.20, 0.53, 0.96, 2.42, 5.10 and 10.10 ng/mL K4 series standard sample working solutions.
5 μL of the test drugs, 2 μL of rat liver microsomes and 468 μL of a PBS buffer solution were taken by using a pipette and prepared a premixed solution. The premixed solution was incubated for 5 min in a water bath kettle at 37° C., 47.5 μL of the premixed solution was taken after the incubation was finished, and the premixed solution, 100 μL of ice-cold acetonitrile and 2.5 μL of a PBS buffer solution were added to another new tube after to be gently mixed evenly to obtain a control group. The reaction was started by adding 22.5 μL of a NADPH solution to the remaining premixed solution, the reaction solution was gently pipetted, and the reaction was stopped by immediately taking 50 μL of the premixed solution and 100 μL of acetonitrile in a new tube. Then the incubation liquid was put into the water bath for incubation, 50 μL of the incubation liquid was respectively taken at 5 min, 10 min, 20 min, 30 min, 45 min, 60 min and 90 min, and the reaction was terminated by adding 100 μL of acetonitrile. The reaction solution was centrifuged at 12,000 r/min for 10 min, and the supernatant was taken and detected on a machine.
• Chromatographic column: Hypersil GOLD 100*2.1 mm 3 μm liquid chromatography column • Mobile phase: 0.1% formic acid aqueous solution (A); and 100% acetonitrile (B) • Gradient elution (0-1 min: 50% B, 1-5 min: 50% B-90% B, 5-7 min: 90% B, 7-7.1 min: 50% B, and 7.1-10 min: 50% B) • Flow rate: 0.3 ml/min; column temperature: 40° C.; and injection volume: 5 μL […]
Sample solutions were subjected to sample injection analysis under the chromatographic and mass spectrometry conditions, and the peak areas were recorded. […]

SMILES	IC50 (Cathepsin K) [µM]	half-life [1] [min]	Cat S/K ratio of inhibitory activities (Cathepsin S)	Cat B/K ratio of inhibitory activities (Cathepsin B)	further results
CN1CCN(c2nc(-c3ccc(CN(CC(C)(C)C)c4nccc(C#N)n4)cc3)cs2)CC1 [Compound K18, 2-((4-(2-(4-methylpiperazin-1-yl)thiazol-4-yl)benzyl) (neopentyl)amino)pyrimidine-4-carbonitrile]	0.01 to 0.1		>>5,780	>>5,780	in-vivo toxicity (overall) (ICR mice; ICR mice): relatively low in-vivo toxicity; body weight vs vehicle group (ICR mice; i.p. 50 mg/kg and 25 mg/kg once a day, one week): No significant difference; histopathology of liver, kidneys and heart vs vehicle group (ICR mice; multiple administration 50 mg/kg and single administration 500 mg/kg): no obvious pathological change was observed; body weight vs vehicle group (ICR mice; single i.p. administration 500 mg/kg and 300 mg/kg): No significant difference; migration, invasion and adhesion of C4-2B cells (C4-2B cells): inhibit the migration, invasion and adhesion processes of the C4-2B cells in a concentration-dependent manner
CC(C)(C)CN(Cc1ccc(-c2ccc(F)cc2)cc1)c1nccc(C#N)n1 [Compound K4, 2-[(2,2-dimethylpropyl){[4-(4-fluorophenyl)phenyl]methyl}amino]pyrimidine-4-carbonitrile]					reduction of clearance rate compared with Ref-03 [1]: 2 times
O=C1COCC1NC(=O)[C@@H]1CCCC[C@H]1C(=O)N1CCc2[nH]c3ccccc3c2C1 (stereo partly drawn) [Compound K20, (1R,2R)-2-(2,3,4,5-tetrahydro-1H-pyrido[4,3-b]indole-2-carbonyl)-N-(4-oxotetrahydrofuran-3-yl)-cyclohexane-1-carboxamide]	0.01 to 0.1	46.6			

Second part, led by results:

IC50 (Cathepsin K) [µM]	half-life [1] [min]	SMILES	Cat S/K ratio of inhibitory activities (Cathepsin S)	Cat B/K ratio of inhibitory activities (Cathepsin B)	further results
0.01 to 0.1	88.5	O=C1COC[C@@H]1NC(=O)[C@@H]1CCCC[C@H]1C(=O)N1CCc2c([nH]c3c(F)cc(F)cc23)C1 [Compound K22, (1R,2R)-2-(6,8-difluoro-2,3,4,9-tetrahydro-1H-pyrido[3,4-b]indole-2-carbonyl)-N—((S)-4-oxotetrahydrofuran-3-yl)cyclohexane-1-carboxamide]			
0.01 to 0.1	42.4	O=C1COC[C@@H]1NC(=O)[C@@H]1CCCC[C@H]1C(=O)N1CCc2c([nH]c3c(F)cccc23)C1 [Compound K21, (1R,2R)-2-(8-fluoro-2,3,4,9-tetrahydro-1H-pyrido[3,4-b]indole-2-carbonyl)-N—((S)-4-oxotetrahydrofuran-3-yl)cyclohexane-1-carboxamide]	>710	>710	
